Columns and labels:
Carboplatin = compound: C1CC(C1)(C(=O)[O-])C(=O)[O-].N.N.[Pt+2] [Carboplatin]; conditions: max 10 µM
Method in brief: (§1)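 Cancer cell lines were plated in 1536-well plates in 7.5 μl of DMEM/F12 or RPMI with 10% FBS and kept 24 hours at 37°C and 5% CO2 before 72 hours of dosing, with final DMSO typically 0.2%. CellTiter-Glo 2.0 luminescence measured viability, scaled between blank-well and DMSO-well means. Dose responses were fitted to a two-parameter logistic curve with a non-linear mixed effects model. This fit gives the single-agent IC50.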

AZD5363 = compound: C1CN(CCC1(C(=O)N[C@@H](CCO)C2=CC=C(C=C2)Cl)N)C3=NC=NC4=C3C=CN4 [AZD5363]; conditions: max 10 µM
Method in brief: as §1

AZD1775 = compound: C=CCn1c(=O)c2cnc(Nc3ccc(N4CCN(C)CC4)cc3)nc2n1-c1cccc(C(C)(C)O)n1 [AZD1775]; conditions: max 3 µM
Method in brief: as §1

Trametinib = compound: CC(=O)Nc1cccc(-n2c(=O)n(C3CC3)c(=O)c3c(Nc4ccc(I)cc4F)n(C)c(=O)c(C)c32)c1 [Trametinib]; conditions: max 1 µM
Method in brief: as §1

Paclitaxel = compound: CC(=O)O[C@H]1C(=O)[C@@]2(C)[C@H]([C@H](OC(=O)c3ccccc3)[C@]3(O)C[C@H](OC(=O)[C@H](O)[C@@H](NC(=O)c4ccccc4)c4ccccc4)C(C)=C1C3(C)C)[C@]1(OC(C)=O)CO[C@@H]1C[C@@H]2O [Paclitaxel]; conditions: max 3 µM
Method in brief: as §1

Palbociclib = compound: CC(=O)c1c(C)c2cnc(Nc3ccc(N4CCNCC4)cn3)nc2n(C2CCCC2)c1=O [Palbociclib]; conditions: max 10 µM
Method in brief: as §1

AZD1390 = compound: CC(C)n1c(=O)n(C)c2cnc3cc(F)c(-c4ccc(OCCCN5CCCCC5)nc4)cc3c21 [AZD1390]; conditions: max 0.3 µM
Method in brief: as §1

Venetoclax = compound: CC1(C)CCC(CN2CCN(c3ccc(C(=O)NS(=O)(=O)c4ccc(NCC5CCOCC5)c([N+](=O)[O-])c4)c(Oc4cnc5[nH]ccc5c4)c3)CC2)=C(c2ccc(Cl)cc2)C1 [Venetoclax]; conditions: max 1 µM
Method in brief: as §1

Dasatinib = compound: CC1=C(C(=CC=C1)Cl)NC(=O)C2=CN=C(S2)NC3=CC(=NC(=N3)C)N4CCN(CC4)CCO [Dasatinib]; conditions: max 2 µM
Method in brief: as §1

SG3199 = compound: CC1=CN2[C@@H](C1)C=NC3=CC(=C(C=C3C2=O)OC)OCCCCCOC4=C(C=C5C(=C4)N=C[C@@H]6CC(=CN6C5=O)C)OC [SG3199]; conditions: max 0.001 µM
Method in brief: as §1

AZD2811 = compound: CCN(CCO)CCCOc1ccc2c(Nc3cc(CC(=O)Nc4cccc(F)c4)[nH]n3)ncnc2c1 [AZD2811]; conditions: max 1 µM
Method in brief: as §1

SN-38 = compound: CCc1c2c(nc3ccc(O)cc13)-c1cc3c(c(=O)n1C2)COC(=O)[C@]3(O)CC [SN-38]; conditions: max 0.3 µM
Method in brief: as §1

AZD0156 = compound: CN(C)CCCOc1ccc(-c2ccc3ncc4c(c3c2)n(C2CCOCC2)c(=O)n4C)cn1 [AZD0156]; conditions: max 3 µM
Method in brief: as §1

AZD4320 = compound: CN(CC[C@H](CSC1=CC=CC=C1)NC2=C(C=C(C=C2)S(=O)(=O)NC(=O)C3=CC=C(C=C3)N4CCC(CC4)[C@H](C5=CC=CC=C5C6=CC=C(C=C6)Cl)O)S(=O)(=O)C(F)(F)F)CCO [AZD4320]; conditions: max 1 µM
Method in brief: as §1

Alisertib = compound: COc1cc(Nc2ncc3c(n2)-c2ccc(Cl)cc2C(c2c(F)cccc2OC)=NC3)ccc1C(=O)O [Alisertib]; conditions: max 10 µM
Method in brief: as §1

Etoposide = compound: COc1cc([C@@H]2c3cc4c(cc3[C@@H](O[C@@H]3O[C@@H]5CO[C@@H](C)O[C@H]5[C@H](O)[C@H]3O)[C@H]3COC(=O)[C@H]23)OCO4)cc(OC)c1O [Etoposide]; conditions: max 10 µM
Method in brief: as §1

Gefitinib = compound: COc1cc2ncnc(Nc3ccc(F)c(Cl)c3)c2cc1OCCCN1CCOCC1 [Gefitinib]; conditions: max 10 µM
Method in brief: as §1

Prexasertib = compound: COc1cccc(OCCCN)c1-c1cc(Nc2cnc(C#N)cn2)n[nH]1 [Prexasertib]; conditions: max 1 µM
Method in brief: as §1

Doxorubicin = compound: COc1cccc2c1C(=O)c1c(O)c3c(c(O)c1C2=O)C[C@@](O)(C(=O)CO)C[C@@H]3O[C@H]1C[C@H](N)[C@H](O)[C@H](C)O1 [Doxorubicin]; conditions: max 1 µM
Method in brief: as §1

AZD5153 = compound: COc1nnc2ccc(N3CCC(c4ccc(OCCN5CCN(C)C(=O)[C@H]5C)cc4)CC3)nn12 [AZD5153]; conditions: max 1 µM
Method in brief: as §1

Lapatinib = compound: CS(=O)(=O)CCNCc1ccc(-c2ccc3ncnc(Nc4ccc(OCc5cccc(F)c5)c(Cl)c4)c3c2)o1 [Lapatinib]; conditions: max 10 µM
Method in brief: as §1

AZD8186 = compound: C[C@@H](Nc1cc(F)cc(F)c1)c1cc(C(=O)N(C)C)cc2c(=O)cc(N3CCOCC3)oc12 [AZD8186]; conditions: max 10 µM
Method in brief: as §1

Crizotinib = compound: C[C@@H](Oc1cc(-c2cnn(C3CCNCC3)c2)cnc1N)c1c(Cl)ccc(F)c1Cl [Crizotinib]; conditions: max 10 µM
Method in brief: as §1

Savolitinib = compound: C[C@@H](c1ccc2nccn2c1)n1nnc2ncc(-c3cnn(C)c3)nc21 [Savolitinib]; conditions: max 1 µM
Method in brief: as §1

AZD6738 = compound: C[C@@H]1COCCN1C2=NC(=NC(=C2)C3(CC3)[S@](=N)(=O)C)C4=C5C=CNC5=NC=C4 [AZD6738]; conditions: max 10 µM
Method in brief: as §1

AZD5991 = compound: Cc1c2c(nn1C)CSCc1cc(n(C)n1)CSc1cc(c3ccccc3c1)OCCCc1c(C(=O)O)n(C)c3c-2c(Cl)ccc13 [AZD5991]; conditions: max 1 µM
Method in brief: as §1

AZD7648 = compound: Cc1cc2ncnn2cc1Nc1ncc2c(n1)n(C1CCOCC1)c(=O)n2C [AZD7648]; conditions: max 10 µM
Method in brief: as §1

Taselisib = compound: Cc1nc(-c2cn3c(n2)-c2ccc(-c4cnn(C(C)(C)C(N)=O)c4)cc2OCC3)n(C(C)C)n1 [Taselisib]; conditions: max 10 µM
Method in brief: as §1

Selumetinib = compound: Cn1cnc2c(F)c(Nc3ccc(Br)cc3Cl)c(C(=O)NOCCO)cc21 [Selumetinib]; conditions: max 10 µM
Method in brief: as §1

SRA737 = compound: N#Cc1cnc(Nc2cc(NC[C@H]3CNCCO3)c(C(F)(F)F)cn2)cn1 [SRA737]; conditions: max 10 µM
Method in brief: as §1

MK-2206 = compound: NC1(c2ccc(-c3nc4ccn5c(=O)[nH]nc5c4cc3-c3ccccc3)cc2)CCC1 [MK-2206]; conditions: max 10 µM
Method in brief: as §1

Gemcitabine = compound: Nc1ccn([C@@H]2O[C@H](CO)[C@@H](O)C2(F)F)c(=O)n1 [Gemcitabine]; conditions: max 0.3 µM
Method in brief: as §1

[1] = compound: O=C(Nc1ccc2[nH]nc(-c3ccncc3)c2c1)[C@@H]1CCN(CC(=O)N2CCN(c3ccc(-c4ncccn4)cc3)CC2)C1; conditions: max 5 µM
Method in brief: as §1

Olaparib = compound: O=C(c1cc(Cc2n[nH]c(=O)c3ccccc23)ccc1F)N1CCN(C(=O)C2CC2)CC1 [Olaparib]; conditions: max 10 µM
Method in brief: as §1

5-Fluorouracil = compound: O=c1[nH]cc(F)c(=O)[nH]1 [5-Fluorouracil]; conditions: max 20 µM
Method in brief: as §1

Cell Line	IC50, cell viability 72 h (Carboplatin) [nM]	IC50, cell viability 72 h (AZD5363) [nM]	IC50, cell viability 72 h (AZD1775) [nM]	IC50, cell viability 72 h (Trametinib) [nM]	IC50, cell viability 72 h (Paclitaxel) [nM]	IC50, cell viability 72 h (Palbociclib) [nM]	IC50, cell viability 72 h (AZD1390) [nM]	IC50, cell viability 72 h (Venetoclax) [nM]	IC50, cell viability 72 h (Dasatinib) [nM]	IC50, cell viability 72 h (SG3199) [nM]	IC50, cell viability 72 h (AZD2811) [nM]	IC50, cell viability 72 h (SN-38) [nM]	IC50, cell viability 72 h (AZD0156) [nM]	IC50, cell viability 72 h (AZD4320) [nM]	IC50, cell viability 72 h (Alisertib) [nM]	IC50, cell viability 72 h (Etoposide) [nM]	IC50, cell viability 72 h (Gefitinib) [nM]	IC50, cell viability 72 h (Prexasertib) [nM]	IC50, cell viability 72 h (Doxorubicin) [nM]	IC50, cell viability 72 h (AZD5153) [nM]	IC50, cell viability 72 h (Lapatinib) [nM]	IC50, cell viability 72 h (AZD8186) [nM]	IC50, cell viability 72 h (Crizotinib) [nM]	IC50, cell viability 72 h (Savolitinib) [nM]	IC50, cell viability 72 h (AZD6738) [nM]	IC50, cell viability 72 h (AZD5991) [nM]	IC50, cell viability 72 h (AZD7648) [nM]	IC50, cell viability 72 h (Taselisib) [nM]	IC50, cell viability 72 h (Selumetinib) [nM]	IC50, cell viability 72 h (SRA737) [nM]	IC50, cell viability 72 h (MK-2206) [nM]	IC50, cell viability 72 h (Gemcitabine) [nM]	IC50, cell viability 72 h [1] [nM]	IC50, cell viability 72 h (Olaparib) [nM]	IC50, cell viability 72 h (5-Fluorouracil) [nM]
TGW (Neuroblastoma)	> 10000	> 10000	571	> 1000	108	> 10000	> 300	> 1000	> 2000	> 1	> 1000	50.5	> 3000	127	162	> 10000	> 10000	27.7	521	> 1000	> 10000	> 10000	6840	> 1000	7370	> 1000	> 10000	> 10000	> 10000	> 10000	> 10000	159	> 5000	> 10000	> 20000
EW-24 (Ewing's Sarcoma)	> 10000	> 10000	> 3000	> 1000	255	> 10000	> 300	> 1000	> 2000	> 1	> 1000	12.9	> 3000	204	> 10000	5330	> 10000	120	> 1000	> 1000	> 10000	> 10000	> 10000	> 1000	> 10000	> 1000	> 10000	2450	> 10000	8420	> 10000	31	> 5000	> 10000	> 20000
D-263MG (Glioblastoma)	> 10000	> 10000	2490	> 1000	76.1	> 10000	> 300	> 1000	> 2000	> 1	> 1000	114	> 3000	> 1000	7080	> 10000	> 10000	125	858	> 1000	> 10000	> 10000	> 10000	> 1000	7850	> 1000	> 10000	> 10000	> 10000	> 10000	> 10000	> 300	> 5000	> 10000	> 20000
Caov-4 (Ovarian Carcinoma)	> 10000	> 10000	816	108	545	> 10000	> 300	> 1000	> 2000	> 1	> 1000	11.6	> 3000	> 1000	> 10000	6040	> 10000	12.6	253	719	> 10000	> 10000	> 10000	> 1000	3190	993	> 10000	> 10000	> 10000	4020	9350	78.5	3330	> 10000	> 20000
EoL-1-cell (Acute Myeloid Leukemia)	> 10000	3190	158	15.5	4.12	4640	> 300	61.8	5.61	> 1	9.92	5.99	> 3000	8.51	42.8	157	> 10000	4.87	69.1	41.3	> 10000	> 10000	2290	> 1000	765	60.6	> 10000	6190	1550	–	4050	6.7	506	> 10000	3960

Reference: the supplement of paper PMC11061612
